{"source": "paper PMC3605511", "about": "“Tumor P-Glycoprotein Correlates with Efficacy of PF-3758309 in in vitro and in vivo Models of Colorectal Cancer” (Frontiers in Pharmacology, 2013)", "key": {"LS1034": {"test_system": "LS1034", "test": "Cell proliferation assay, LS1034", "type": "cell-based", "settings": "Homo sapiens, LS-1034; LS1034, PF-309 alone, 72 h; 1 uM was the maximum concentration used", "description": "Cytotoxic/proliferation effects were determined using the sulforhodamine B (SRB) assay (Skehan et al., [1990]) or by resazurin. Briefly, cells in logarithmic growth phase were transferred to 96 well flat bottom plates with lids. One-hundred microliter cell suspensions containing 1500–5000 viable cells were plated into each well and incubated overnight prior to exposure with increasing concentrations of PF-309 for 3–5 days, dependent upon cell type. Media was removed and cells were fixed with cold 10% trichloroacetic acid for 30 min at 4°C. Cells were then washed with water and stained with 0.4% SRB (Fisher Sci., Pittsburgh, PA, USA) for 30 min at room temperature, washed again with 1% acetic acid, followed by stain solubilization with 10 mM tris at room temperature. The plate was then read on a plate reader (Biotek Synergy 2, Winooski, VT, USA) set at an absorbance wavelength of 565 nm. Cell proliferation curves were derived from the raw absorbance (OD) data.\nSince PF-309 appeared to be a strong P-gp and BCRP substrates, we sought to evaluate if the transporters influenced sensitivity in vitro. We evaluated the sensitivity of CRC cell lines to PF-309 treatment in a panel of 27 lines. Cells were exposed to PF-309 at a range of concentrations for 72 h and cell content measured by SRB assay (see Pitts et al., [2013]). […]"}, "CUCRC026 CRC PDTX model": {"test_system": "CUCRC026 CRC PDTX model", "test": "Patient derived tumor xenograft efficacy, CUCRC026", "type": "in vivo, mice", "settings": "25 mg/kg orally twice daily, 22–56 days, end of study tumor volumes", "description": "For patient tumor xenografts, surgical specimens of patients undergoing either removal of a primary or metastatic tumor at the University of Colorado Hospital are implanted subcutaneously into five mice for each patient with a 10-G trochar. After a subsequent growth and passage in mice, tumors are excised, and expanded into cohorts for treatment (n = 6–15 per group). Mice were treated with PF-309 or vehicle (0.5% methylcellulose) for 22–56 days (until control tumor volume reach ∼1500 mm^3) twice daily (BID) by oral gavage (PO). Monitoring of mice and measurements of tumors were conducted as described above. % Growth Inhibition= (average control volume−average treated volume)/average control volume×100% In addition to the cell line xenografts, we also treated 12 different patient derived tumor xenograft (PDTX) CRC models with PF-309 (Figure 6). We were unable to assess how ABCB1 gene expression correlated with efficacy in these models. The PDTX models are propagated in vivo, are not immortalized, and are not grown in in vitro culture. […] Tumor and plasma sample pairs were collected from animals at the end of study for eight tumor models (three cell line xenografts and five PDTX models) and concentrations of PF-309 were measured. […]"}, "[1]": {"test": "Tumor concentration 6 h after a single dose, P-gp tumor concentration study", "type": "in vivo, mice", "settings": "single dose 25 mg/kg, 6 h post treatment; SW480 and HCT15 vs GEO and HCT116 xenografts", "description": "Plasma and tumor samples were collected 1 h post treatment at the end of therapeutic studies or 6 h post treatment for P-gp tumor concentration studies. PF-309 was measured in mouse plasma and tumor tissue using a validated LC/MS/MS assay carried out by the University of Colorado Cancer Center Pharmacology Shared Resource. Positive ion electrospray ionization (ESI) mass spectra were obtained with a 3200 QTrap triple quadrupole mass spectrometer (Applied Biosystems Inc., Foster City, CA, USA) with a turboionspray source interfaced to an Agilent 1200 Series binary HPLC system (Agilent Technologies Inc., Santa Clara, CA, USA), and a HTC-PAL auto-sampler (LEAP Technologies, Carrboro, NC, USA). […]\nFinally, we determined if the presence of P-gp affects tumor concentration. We evaluated the tumor concentration in two tumor xenograft lines with high ABCB1 gene expression (SW480 and HCT15) and two tumor xenografts with low ABCB1 gene expression (GEO and HCT116). Tumors from animals treated with a single dose of 25 mg/kg PF-309 were collected 6 h post treatment and concentrations analyzed. […] Tumors were also analyzed by western blot to confirm the presence or absence of P-gp, which agreed with the gene expression data (Figure 7B)."}}, "data": [{"smiles": "Cc1nc(Nc2n[nH]c3c2CN(C(=O)N[C@H](CN(C)C)c2ccccc2)C3(C)C)c2sccc2n1", "note": "[PF-309]", "values": [{"measurement": "IC50", "setting": "LS1034", "result": "> 1000", "unit": "nM"}, {"measurement": "% Growth inhibition", "setting": "CUCRC026 CRC PDTX model", "result": 30, "unit": "%"}, {"measurement": "tumor concentration, high tumor P-gp vs low ABCB1 expression", "setting": "[1]", "result": "∼four fold lower"}]}]}
